Experimental data taken from ChEMBL document CHEMBL5257125, “Discovery of pyrido[4,3-d]pyrimidinone derivatives as novel Wee1 inhibitors” (Bioorg Med Chem, 2023).
Blank lines part the entries; values can stand above or below the molecule they belong to.

What was measured:
Wee1-like protein kinase [1] = biological target: T1, Wee1-like protein kinase (Homo sapiens, UniProt P30291); test: Inhibition of recombinant human Wee1 (214 to end residues) incubated for 1 hr in presence of tracer 178 by fluorescence based assay
Target sequence in this assay (P30291 whole entry): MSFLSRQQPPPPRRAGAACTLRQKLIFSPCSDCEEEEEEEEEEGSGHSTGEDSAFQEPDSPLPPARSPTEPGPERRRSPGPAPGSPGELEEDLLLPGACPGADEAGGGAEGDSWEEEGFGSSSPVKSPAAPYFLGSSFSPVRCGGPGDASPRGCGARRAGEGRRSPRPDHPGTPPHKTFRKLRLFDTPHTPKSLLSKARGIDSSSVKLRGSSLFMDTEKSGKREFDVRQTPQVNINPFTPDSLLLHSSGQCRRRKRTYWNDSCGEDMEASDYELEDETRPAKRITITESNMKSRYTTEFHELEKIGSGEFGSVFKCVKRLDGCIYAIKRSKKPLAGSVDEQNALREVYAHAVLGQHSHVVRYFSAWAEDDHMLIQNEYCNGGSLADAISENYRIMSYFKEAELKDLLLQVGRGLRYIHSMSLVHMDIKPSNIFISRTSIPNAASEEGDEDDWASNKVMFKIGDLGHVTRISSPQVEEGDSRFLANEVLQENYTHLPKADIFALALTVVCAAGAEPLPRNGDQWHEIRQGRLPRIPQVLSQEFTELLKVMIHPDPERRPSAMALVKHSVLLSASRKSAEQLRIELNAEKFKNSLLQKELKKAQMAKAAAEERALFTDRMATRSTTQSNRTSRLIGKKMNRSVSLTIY

T47D = test: Antiproliferative activity against human T47D cells incubated for 72 hrs by Celltiter-glo assay; format: functional, cell-based
MV4-11 [2] = test: Antiproliferative activity against human MV4-11 cells incubated for 72 hrs by Celltiter-glo assay; format: functional, cell-based; conditions: MV4-11, 72 h
[3] = Metabolic stability in mouse liver microsomes assessed as parent compound remaining preincubated with NADPH for 5 mins followed by compound addition and measured upto 90 mins by LC-MS/MS analysis; format: ADME, Microsome; conditions: read-out: Stability
MV4-11 [4] = test: Induction of apoptosis in human MV4-11 cells assessed as necrotic cells at 3200 nM after 48 hrs by Annexin V FITC/PI staining based flow cytometry analysis (reference value: 0.00968%); format: functional
MV4-11 [5] = test: Induction of apoptosis in human MV4-11 cells assessed as necrotic cells at 1600 nM after 48 hrs by Annexin V FITC/PI staining based flow cytometry analysis (reference value: 0.00968%); format: functional
MV4-11 [6] = test: Induction of apoptosis in human MV4-11 cells assessed as necrotic cells at 800 nM after 48 hrs by Annexin V FITC/PI staining based flow cytometry analysis (reference value: 0.00968%); format: functional
MV4-11 [7] = test: Induction of apoptosis in human MV4-11 cells assessed as viable cells at 200 nM after 48 hrs by Annexin V FITC/PI staining based flow cytometry analysis (reference value: 86.6%); format: functional; conditions: read-out: Activity
MV4-11 [8] = test: Induction of apoptosis in human MV4-11 cells assessed as early apoptotic cells at 3200 nM after 48 hrs by Annexin V FITC/PI staining based flow cytometry analysis (reference value: 9.33%); format: functional
MV4-11 [9] = test: Induction of apoptosis in human MV4-11 cells assessed as necrotic cells at 400 nM after 48 hrs by Annexin V FITC/PI staining based flow cytometry analysis (reference value: 0.00968%); format: functional
MV4-11 [10] = test: Induction of apoptosis in human MV4-11 cells assessed as early apoptotic cells at 800 nM after 48 hrs by Annexin V FITC/PI staining based flow cytometry analysis (reference value: 9.33%); format: functional
MV4-11 [11] = test: Induction of apoptosis in human MV4-11 cells assessed as viable cells at 1600 nM after 48 hrs by Annexin V FITC/PI staining based flow cytometry analysis (reference value: 86.6%); format: functional; conditions: read-out: Activity
MV4-11 [12] = test: Induction of apoptosis in human MV4-11 cells assessed as early apoptotic cells at 1600 nM after 48 hrs by Annexin V FITC/PI staining based flow cytometry analysis (reference value: 9.33%); format: functional
MV4-11 [13] = test: Induction of DNA damage in human MV4-11 cells assessed as increase in gamma-H2AX expression incubated for 24 hrs by Western blot analysis; format: functional, cell-based; conditions: dose 0.05-0.2 µM
MV4-11 [14] = test: Induction of apoptosis in human MV4-11 cells assessed as viable cells at 800 nM after 48 hrs by Annexin V FITC/PI staining based flow cytometry analysis (reference value: 86.6%); format: functional; conditions: read-out: Activity
MV4-11 [15] = test: Induction of apoptosis in human MV4-11 cells assessed as early apoptotic cells at 200 nM after 48 hrs by Annexin V FITC/PI staining based flow cytometry analysis (reference value: 9.33%); format: functional
MV4-11 [16] = test: Induction of apoptosis in human MV4-11 cells assessed as necrotic cells at 200 nM after 48 hrs by Annexin V FITC/PI staining based flow cytometry analysis (reference value: 0.00968%); format: functional
MV4-11 [17] = test: Induction of apoptosis in human MV4-11 cells assessed as late apoptotic cells at 200 nM after 48 hrs by Annexin V FITC/PI staining based flow cytometry analysis (reference value: 4.07%); format: functional
MV4-11 [18] = test: Induction of apoptosis in human MV4-11 cells assessed as viable cells at 3200 nM after 48 hrs by Annexin V FITC/PI staining based flow cytometry analysis (reference value: 86.6%); format: functional; conditions: read-out: Activity
MV4-11 [19] = test: Induction of apoptosis in human MV4-11 cells assessed as early apoptotic cells at 400 nM after 48 hrs by Annexin V FITC/PI staining based flow cytometry analysis (reference value: 9.33%); format: functional
MV4-11 [20] = test: Induction of apoptosis in human MV4-11 cells assessed as late apoptotic cells at 800 nM after 48 hrs by Annexin V FITC/PI staining based flow cytometry analysis (reference value: 4.07%); format: functional
MV4-11 [21] = test: Induction of apoptosis in human MV4-11 cells assessed as viable cells at 400 nM after 48 hrs by Annexin V FITC/PI staining based flow cytometry analysis (reference value: 86.6%); format: functional; conditions: read-out: Activity
Wee1-like protein kinase [22] = biological target: T1, Wee1-like protein kinase; test: Inhibition of Wee1 in human MV4-11 cells assessed as reduction in phosphorylation of CDK1-Y15 incubated for 24 hrs by Western blot analysis; format: cell-based; conditions: dose 0.01-5 µM
Target sequence in this assay (P30291 whole entry, looked up): as the sequence (P30291 whole entry) above

MV4-11 [23] = test: Induction of apoptosis in human MV4-11 cells assessed as late apoptotic cells at 1600 nM after 48 hrs by Annexin V FITC/PI staining based flow cytometry analysis (reference value: 4.07%); format: functional
MV4-11 [24] = test: Induction of apoptosis in human MV4-11 cells assessed as late apoptotic cells at 3200 nM after 48 hrs by Annexin V FITC/PI staining based flow cytometry analysis (reference value: 4.07%); format: functional
MV4-11 [25] = test: Induction of apoptosis in human MV4-11 cells assessed as late apoptotic cells at 400 nM after 48 hrs by Annexin V FITC/PI staining based flow cytometry analysis (reference value: 4.07%); format: functional
MV4-11 [26] = test: Induction of cell cycle arrest in human MV4-11 cells assessed as accumulation of cells at G0/G1 phase at 800 nM incubated for 24 hrs by flow cytometry analysis; format: functional

SMILES: C[C@@H]1CN(c2ccc(Nc3cc4ncn(-c5c(Cl)cccc5Cl)c(=O)c4cn3)cc2CNC2CC2)C[C@H](C)N1
IC50 (Wee1-like protein kinase [1]): 107 nM

SMILES: NCC1CCN(c2ccc(Nc3cc4ncn(-c5c(Cl)cccc5Cl)c(=O)c4cn3)cc2)CC1
IC50 (Wee1-like protein kinase [1]): 55 nM

SMILES: O=c1c2cnc(Nc3ccc(C4CCNCC4)cc3)cc2ncn1-c1c(Cl)cccc1Cl
IC50 (Wee1-like protein kinase [1]): 78 nM

SMILES: CN(C)CCN(C)c1ccc(Nc2cc3ncn(-c4c(Cl)cccc4Cl)c(=O)c3cn2)cc1
IC50 (T47D): 9600 nM
remaining at 1.5 h [3]: 60%
IC50 (Wee1-like protein kinase [1]): 70 nM
IC50 (MV4-11 [2]): 660 nM

SMILES: CN1CCN(Cc2ccc(Nc3cc4ncn(-c5c(Cl)cccc5Cl)c(=O)c4cn3)cc2)CC1
IC50 (Wee1-like protein kinase [1]): 124 nM

SMILES: O=c1c2cnc(Nc3ccc(N[C@@H]4CN5CCC4CC5)cc3)cc2ncn1-c1c(Cl)cccc1Cl
IC50 (Wee1-like protein kinase [1]): 201 nM

SMILES: NC1CCN(c2ccc(Nc3cc4ncn(-c5c(Cl)cccc5Cl)c(=O)c4cn3)cc2)CC1
IC50 (T47D): 18800 nM
IC50 (Wee1-like protein kinase [1]): 65 nM
IC50 (MV4-11 [2]): 2690 nM

SMILES: CN(C)CCCNc1ccc(Nc2cc3ncn(-c4c(Cl)cccc4Cl)c(=O)c3cn2)cc1
IC50 (T47D): 14000 nM
remaining at 1.5 h [3]: 22%
IC50 (Wee1-like protein kinase [1]): 79 nM
IC50 (MV4-11 [2]): 874 nM

SMILES: CN(CCCN)c1ccc(Nc2cc3ncn(-c4c(Cl)cccc4Cl)c(=O)c3cn2)cc1
IC50 (Wee1-like protein kinase [1]): 90 nM

SMILES: C[C@@H]1CN(c2ccc(Nc3cc4ncn(-c5c(Cl)cccc5Cl)c(=O)c4cn3)cc2C#N)C[C@H](C)N1
IC50 (Wee1-like protein kinase [1]): 163 nM

SMILES: N[C@@H]1CCN(c2ccc(Nc3cc4ncn(-c5c(Cl)cccc5Cl)c(=O)c4cn3)cc2)C1
IC50 (Wee1-like protein kinase [1]): 58 nM

Now those with a lower IC50 (Wee1-like protein kinase [1]), led by results:

IC50 (Wee1-like protein kinase [1]): 52 nM
SMILES: COc1cc(Nc2cc3ncn(-c4c(Cl)cccc4Cl)c(=O)c3cn2)ccc1N1C[C@@H](C)N[C@@H](C)C1

IC50 (T47D): 10400 nM
IC50 (Wee1-like protein kinase [1]): 52 nM
IC50 (MV4-11 [2]): 1220 nM
SMILES: CN(C)CCOc1ccc(Nc2cc3ncn(-c4c(Cl)cccc4Cl)c(=O)c3cn2)cc1

IC50 (T47D): 14400 nM
IC50 (Wee1-like protein kinase [1]): 47 nM
IC50 (MV4-11 [2]): 1330 nM
SMILES: CN1CCN(c2ccc(Nc3cc4ncn(-c5c(Cl)cccc5Cl)c(=O)c4cn3)cc2)CC1

IC50 (T47D): 13700 nM
IC50 (Wee1-like protein kinase [1]): 43 nM
IC50 (MV4-11 [2]): 2050 nM
SMILES: O=c1c2cnc(Nc3ccc(N4CCN(CCO)CC4)cc3)cc2ncn1-c1c(Cl)cccc1Cl

IC50 (T47D): 4680 nM
IC50 (Wee1-like protein kinase [1]): 41 nM
IC50 (MV4-11 [2]): 1460 nM
SMILES: N[C@H]1CCCN(c2ccc(Nc3cc4ncn(-c5c(Cl)cccc5Cl)c(=O)c4cn3)cc2)C1

IC50 (T47D): 19200 nM
IC50 (Wee1-like protein kinase [1]): 35 nM
IC50 (MV4-11 [2]): 1760 nM
SMILES: CN1CCC(Nc2ccc(Nc3cc4ncn(-c5c(Cl)cccc5Cl)c(=O)c4cn3)cc2)CC1

IC50 (T47D): 3230 nM
remaining at 1.5 h [3]: > 50%
IC50 (Wee1-like protein kinase [1]): 23 nM
IC50 (MV4-11 [2]): 791 nM
SMILES: C[C@@H]1CN(c2ccc(Nc3cc4ncn(-c5c(Cl)cccc5Cl)c(=O)c4cn3)cc2CO)C[C@H](C)N1

IC50 (T47D): 4640 nM
remaining at 1.5 h [3]: 60%
IC50 (Wee1-like protein kinase [1]): 21 nM
IC50 (MV4-11 [2]): 763 nM
inhibition (Wee1-like protein kinase [22]): Dose-Dependent Effect
SMILES: CC(=O)Nc1cc(Nc2cc3ncn(-c4c(Cl)cccc4Cl)c(=O)c3cn2)ccc1N1C[C@@H](C)N[C@@H](C)C1
Activity (MV4-11 [4]): 0.01%
Activity (MV4-11 [5]): 0.048%
Activity (MV4-11 [6]): 0.029%
viability at 0.2 µM (MV4-11 [7]): 84.7%
Activity (MV4-11 [8]): 21.3%
Activity (MV4-11 [9]): 0.02%
Activity (MV4-11 [10]): 12.2%
viability at 1.6 µM (MV4-11 [11]): 82.4%
Activity (MV4-11 [12]): 12.4%
Activity (MV4-11 [13]): Dose-Dependent Effect
viability at 0.8 µM (MV4-11 [14]): 81.7%
Activity (MV4-11 [15]): 12%
Activity (MV4-11 [16]): 0.00954%
Activity (MV4-11 [17]): 3.34%
viability at 3.2 µM (MV4-11 [18]): 66.7%
Activity (MV4-11 [19]): 10.4%
Activity (MV4-11 [20]): 0.12%
viability at 0.4 µM (MV4-11 [21]): 84.5%
Activity (MV4-11 [23]): 5.11%
Activity (MV4-11 [24]): 12%
Activity (MV4-11 [25]): 5.09%
Activity (MV4-11 [26]): 63%

IC50 (T47D): 4130 nM
IC50 (Wee1-like protein kinase [1]): 19 nM
IC50 (MV4-11 [2]): 2680 nM
SMILES: C[C@@H]1CN(c2ccc(Nc3cc4ncn(-c5c(Cl)cccc5Cl)c(=O)c4cn3)cc2)C[C@H](C)N1
